Patent US7101878B1 (Agouron Pharmaceuticals, Inc., priority 1998, dated 2006)
Read-outs that look alike come from different tables or passages of the source.

Target: T1, human GnRH receptor (Homo sapiens, UniProt P30968)
T1 construct: expressed in transfected cells; host or cells: HEK 293 (hGnRH-R/293, from Dr. Stuart Sealfon)
T1 sequence (P30968 1-328): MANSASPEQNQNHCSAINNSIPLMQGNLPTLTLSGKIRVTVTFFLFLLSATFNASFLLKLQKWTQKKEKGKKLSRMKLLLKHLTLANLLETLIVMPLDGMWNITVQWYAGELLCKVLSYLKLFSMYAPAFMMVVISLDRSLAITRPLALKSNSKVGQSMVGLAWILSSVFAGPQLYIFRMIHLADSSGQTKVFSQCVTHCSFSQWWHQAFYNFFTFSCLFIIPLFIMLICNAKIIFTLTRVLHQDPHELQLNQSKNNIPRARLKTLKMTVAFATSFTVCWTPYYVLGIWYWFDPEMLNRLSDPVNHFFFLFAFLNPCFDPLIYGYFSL
Assay: Radioligand binding, 125I-GnRH-A displacement, membranes of HEK 293 cells with human GnRH receptor
Settings: for IC50: read-out: hGnRH IC50; for remaining activity at 1 µM / remaining activity at 10 µM: substrate remaining, closer to zero = closer to 100% inhibition; for remaining activity at 1 µM: 1 uM compound, read-out: S%R 1 uM hGnRHR; for remaining activity at 10 µM: 10 uM compound, read-out: S%R 10 uM hGnRHR
Method in brief: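 Bound tracer was separated by filtration through polyethyleneimine-soaked GF/C filters and counted by liquid scintillation. IC50 from curve fitting; other species were tested under the same conditions.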

[1] = 1 uM, read-out: % Inhib. @ 1 uM hGnRH
[2] = 1 h, repeat of % Inhib. at 1 uM, read-out: Repeats @ 1 uM hGnRH

| Compound | inhibition at 1 µM [1] | inhibition at 1 µM [2] | IC50 | other results |
| --- | --- | --- | --- | --- |
| Cc1cc2c(cc1Cc1ccc(C(=O)NCC(F)(F)F)o1)C(C)(C)CCC2(C)C [drawing 1018] | 18% | 9% | – | – |
| Cc1cc2c(cc1Cc1ccc(C(=O)NCCCNC(=O)c3ccc(Cc4cc5c(cc4C)C(C)(C)CCC5(C)C)o3)o1)C(C)(C)C=CC2(C)C [Compound 27] | – | – | > 10000 nM | – |
| COc1ccccc1CNC(=O)c1ccc(Cc2cc3c(cc2C)C(C)(C)CCC3(C)C)o1 [Compound 404] | – | – | – | remaining activity at 1 µM (1 h): 13% |
| COCCNC(=O)c1ccc(Cc2cc3c(cc2C)C(C)(C)CCC3(C)C)o1 [drawing 1155] | 55% | 61% | – | – |
| Cc1cc2c(cc1Cc1ccc(C(=O)NC3CCCCC3Cc3nccc(NCC4CCCO4)n3)o1)C(C)(C)CCC2(C)C (centres unmarked) | -21% | -5% | – | – |
| Cc1cc(NC(=O)c2ccc(Cc3cc4c(cc3C)C(C)(C)CCC4(C)C)o2)n(-c2ccccc2)n1 [Compound 328] | – | – | – | remaining activity at 10 µM (1 h): 33% |
| Cc1cc2c(cc1Cc1ccc(C(=O)NCc3ccccn3)o1)C(C)(C)CCC2(C)C [drawing 984] | 62% | 67% | – | – |
| Cc1cc2c(cc1Cc1ccc(C(=O)N(CCC3CCCN3C)Cc3ccc(Cl)cc3)o1)C(C)(C)CCC2(C)C (centres unmarked) | -22% | -4% | – | – |
| COc1cc(OC)c(NC(=O)c2ccc(Cc3cc(OC)cc(OC)c3OC)o2)c(OC)c1 [Compound 208] | – | – | 8620 nM | – |
| Cc1cc2c(cc1Cc1ccc(C(=O)NCCc3ccncc3)o1)C(C)(C)CCC2(C)C [drawing 1025] | 83% | 84% | – | – |
| COC(=O)N1CCC(C)(C)c2cc(OC)cc(Cc3ccc(C(=O)Nc4c(OC)cc(OC)cc4OC)o3)c21 [Compound 187] | – | – | 9000 nM | – |
| COc1ccc(OC)c(OC)c1Cc1ccc(C(=O)Nc2c(OC)cccc2OC)o1 [Compound 211] | – | – | 1320 nM | – |
| N=C(N)NC[C@H]1CC[C@H](CNC(=O)c2ccc(Cc3ccccc3)o2)CC1 [Compound 34] | – | – | > 10000 nM | – |
| Cc1cc2c(cc1Cc1ccc(C(=O)N3C[C@@H]4CCCC[C@@H]4CC3C(=O)NC(C)(C)C)o1)C(C)(C)CCC2(C)C (some centres unmarked) [Compound 38.5] | – | – | > 10000 nM | – |
| Cc1cc2c(cc1Cc1ccc(C(=O)NCc3ccc(C(=O)O)cc3)o1)C(C)(C)CCC2(C)C [drawing 1016] | 44% | 45% | – | – |
| Cc1cc2c(cc1Cc1ccc(C(=O)NC(CO)Cc3ccccc3)o1)C(C)(C)CCC2(C)C (centres unmarked) [Compound 420] | – | – | – | remaining activity at 1 µM (1 h): 28% |
| Cc1cc2c(cc1Cc1ccc(C(=O)NCCN3CCCC3)o1)C(C)(C)CCC2(C)C [drawing 986] | -7% | 0% | – | – |
| COc1ccc(NC(=O)c2ccc(Cc3cc4c(cc3C)C(C)(C)CCC4(C)C)o2)cc1F [Compound 381] | – | – | – | remaining activity at 10 µM (1 h): 34% |
| COc1cc(OC)c(NC(=O)c2ccc(C(O)c3cc4c(cc3C)C(C)(C)CCC4(C)C)o2)c(OC)c1 (centres unmarked) [AXC- 07047] | – | – | 1410 nM | – |
| Cc1cc2c(cc1Cc1ccc(C(=O)NC3CCN(Cc4ccccc4)CC3)o1)C(C)(C)CCC2(C)C | -12% | 14% | – | – |
| Cc1cc2c(cc1Cc1ccc(C(=O)NCCc3cccc(F)c3)o1)C(C)(C)CCC2(C)C [Compound 54] | – | – | 680 nM | – |

| Compound | inhibition at 1 µM [1] | inhibition at 1 µM [2] | IC50 | other results |
| --- | --- | --- | --- | --- |
| COc1cc(C)c(Cl)c(C)c1Cc1ccc(C(=O)NCc2nc3ccccc3[nH]2)o1 [Compound 234] | – | – | > 10000 nM | – |
| Cc1cc2c(cc1Cc1ccc(C(=O)NCc3cccnc3)o1)C(C)(C)CCC2(C)C [Compound 400] | – | – | – | remaining activity at 1 µM (1 h): 28% |
| Cc1cc2c(cc1Cc1ccc(C(=O)Nc3ccc(O)c4ncccc34)o1)C(C)(C)CCC2(C)C [Compound 341] | – | – | – | remaining activity at 10 µM (1 h): 20% |
| Cc1cc(C)c2ccc(NC(=O)c3ccc(Cc4cc5c(cc4C)C(C)(C)CCC5(C)C)o3)nc2n1 [Compound 191] | – | – | 4240 nM | – |
| COc1cccc(CNC(=O)c2ccc(Cc3cc4c(cc3C)C(C)(C)CCC4(C)C)o2)c1 [drawing 1188] | 76% | 79% | – | – |
| Cc1cc2c(cc1Cc1ccc(C(=O)NCCc3c[nH]c4ccc(Cl)cc34)o1)C(C)(C)CCC2(C)C [drawing 1007] | 31% | 45% | – | – |
| COc1cccc(CCNC(=O)c2ccc(Cc3cc4c(cc3C)C(C)(C)CCC4(C)C)o2)c1OC [drawing 1147] | 58% | 63% | – | – |
| Cc1cc2c(cc1Cc1ccc(C(=O)N[C@H](C)[C@H](O)c3ccc(O)cc3)o1)C(C)(C)CCC2(C)C | -2% | 6% | – | – |
| Cc1cc2c(cc1Cc1ccc(C(=O)Nc3cccc([N+](=O)[O-])c3)o1)C(C)(C)CCC2(C)C [Compound 370] | – | – | – | remaining activity at 10 µM (1 h): 37% |
| COc1cc(OC)c(Cc2ccc(C(=O)Nc3c(OC)cc(OC)cc3OC)o2)c(OC)c1 [Compound 219] | – | – | 875 nM | – |
| Cc1cc2c(cc1Cc1ccc(C(=O)NCc3ccccc3Cl)o1)C(C)(C)CCC2(C)C [drawing 1103] | 77% | 84% | – | – |
| Cc1cc2c(cc1Cc1ccc(C(=O)Nc3c(C)cccc3C(C)C)o1)C(C)(C)CCC2(C)C [Compound 394] | – | – | – | remaining activity at 10 µM (1 h): 57% |
| COc1cccc(OC)c1CNC(=O)c1ccc(Cc2cc3c(cc2C)C(C)(C)CCC3(C)C)o1 | -3% | 2% | – | – |
| Cc1cc2c(cc1Cc1ccc(C(=O)NC3CCCc4ccccc43)o1)C(C)(C)CCC2(C)C (centres unmarked) [drawing 1150] | – | – | – | % Inhib. @ 1 uM hGnRH (1 uM): 16%; Repeats @ 1 uM hGnRH (repeat of % Inhib. at 1 uM): 32 |
| Cc1cc2c(cc1Cc1ccc(C(=O)NCC3CCCC(CNc4cccc(NCC5CCCO5)n4)C3)o1)C(C)(C)CCC2(C)C (centres unmarked) | 84% | 89% | – | – |
| CCN(Cc1ccncc1)C(=O)c1ccc(Cc2cc3c(cc2C)C(C)(C)CCC3(C)C)o1 | 10% | 2% | – | – |
| Cc1cc2c(cc1Cc1ccc(C(=O)Nc3ccc4[nH]c(-c5ccccn5)nc4c3)o1)C(C)(C)CCC2(C)C [drawing 1002] | 13% | 8% | – | – |
| Cc1cc2c(cc1Cc1ccc(C(=O)NC3=NN(c4c(Cl)cc(Cl)cc4Cl)C(=O)C3)o1)C(C)(C)CCC2(C)C | -29% | -31% | – | – |
| Cc1cc2c(cc1Cc1ccc(C(=O)NCCNc3ccccc3)o1)C(C)(C)CCC2(C)C [drawing 1080] | 70% | 72% | – | – |
| Cc1cc2c(cc1Cc1ccc(C(=O)NCCC#N)o1)C(C)(C)CCC2(C)C [Compound 436] | – | – | – | remaining activity at 1 µM (1 h): 58% |
| Cc1cc2c(cc1Cc1ccc(C(=O)NCCNc3nccc(NCC4CCCO4)n3)o1)C(C)(C)CCC2(C)C (centres unmarked) [Compound 63] | – | – | 2500 nM | – |

| Compound | inhibition at 1 µM [1] | inhibition at 1 µM [2] | IC50 | other results |
| --- | --- | --- | --- | --- |
| CCc1cccc(C)c1NC(=O)c1ccc(Cc2cc3c(cc2C)C(C)(C)CCC3(C)C)o1 [Compound 399] | – | – | – | remaining activity at 10 µM (1 h): 41% |
| Cc1cc2c(cc1Cc1ccc(C(=O)NCc3ccc4c(c3)OCO4)o1)C(C)(C)CCC2(C)C [drawing 992] | 75% | 92% | – | – |
| Cc1cc2c(cc1Cc1ccc(C(=O)NC(CO)c3ccccc3)o1)C(C)(C)CCC2(C)C (centres unmarked) | 17% | 26% | – | – |
| Cc1cc2c(cc1Cc1ccc(C(=O)N(Cc3ccccc3)Cc3ccccc3)o1)C(C)(C)CCC2(C)C | -2% | 3% | – | – |
| COc1cc(CCNC(=O)c2ccc(Cc3cc4c(cc3C)C(C)(C)CCC4(C)C)o2)cc(OC)c1 [Compound 430] | – | – | – | remaining activity at 1 µM (1 h): 55% |
| Cc1cc2c(cc1Cc1ccc(C(=O)NCc3cccc4ccccc34)o1)C(C)(C)CCC2(C)C [drawing 1120] | 61% | 71% | – | – |
| Cc1cc2c(cc1Cc1ccc(C(=O)NCCc3cccnc3)o1)C(C)(C)CCC2(C)C [drawing 1032] | 80% | 90% | – | – |
| Cc1cnc(CNC(=O)c2ccc(Cc3ccccc3)o2)cn1 [Compound 45] | – | – | > 10000 nM | – |
| Cc1cc2c(cc1Cc1ccc(C(=O)NCc3ccc4c(c3)C(C)(C)CCC4(C)C)o1)C(C)(C)CCC2(C)C [Compound 165] | – | – | > 10000 nM | – |
| Cc1cc(C)cc(NC(=O)c2ccc(Cc3cc4c(cc3C)C(C)(C)CCC4(C)C)o2)c1 [Compound 236] | – | – | 903 nM | – |
| Cc1cc2c(cc1Cc1ccc(C(=O)NCc3ccc(CN(C)C)cc3)o1)C(C)(C)CCC2(C)C [Compound 166] | – | – | 260 nM | – |
| Cc1cc2c(cc1Cc1ccc(C(=O)Nc3ccccc3)o1)C(C)(C)CCC2(C)C [Compound 384] | – | – | – | remaining activity at 10 µM (1 h): 21% |
| COC(=O)c1cc(OC)c(OC)c(OO)c1NC(=O)c1ccc(Cc2cc3c(cc2C)C(C)(C)CCC3(C)C)o1 [Compound 386] | – | – | – | remaining activity at 10 µM (1 h): 27% |
| COC(CNC(=O)c1ccc(Cc2cc3c(cc2C)C(C)(C)CCC3(C)C)o1)OC [Compound 196] | – | – | 760 nM | – |
| Cc1ccc([C@H](C)NC(=O)c2ccc(Cc3cc4c(cc3C)C(C)(C)CCC4(C)C)o2)cc1 [Compound 123] | – | – | 510 nM | – |
| Cc1cc2c(cc1Cc1ccc(C(=O)NCCC(=O)NC(c3ccccc3)c3ccccc3)o1)C(C)(C)CCC2(C)C | -23% | -8% | – | – |
| Cc1cc2c(cc1Cc1ccc(C(=O)NCCCN3CCCC3=O)o1)C(C)(C)CCC2(C)C [drawing 1131] | 68% | 71% | – | – |
| COc1cc(OC)c(NC(=O)c2ccc(Cc3cc(C4CCCCC4)ccc3C)o2)c(OC)c1 [Compound 304] | – | – | 303 nM | – |
| Cc1cc2c(cc1Cc1ccc(C(=O)NCCOCCO)o1)C(C)(C)CCC2(C)C [Compound 401] | – | – | – | remaining activity at 1 µM (1 h): 32% |
